In patent US9609868B2, “Alkoximino-substituted anthranilic acid diamides as pesticides” (BAYER CROPSCIENCE AKTIENGESELLSCHAFT, priority 2013, dated 2017):

Key:
[1] = system: Boophilus microplus; assay: Boophilus microplus - injection test (BOOPMI Inj); assay type: in vivo; conditions: application rate 20 μg/animal, injection into engorged adult female cattle ticks
Experimental: Boophilus microplus—Injection Test (BOOPMI Inj)
(§1) Solvent: dimethyl sulfoxide
To produce a suitable preparation of active compound, 10 mg of active compound are mixed with 0.5 ml of solvent and the concentrate is diluted with solvent to the desired concentration.
1 μl of the active compound solution is injected into the abdomen of 5 engorged adult female cattle ticks (Boophilus microplus). The animals are transferred into dishes and kept in a climate-controlled room.
The activity is assessed after the desired time by laying of fertile eggs. Eggs which are not visibly fertile are stored in a climate-controlled cabinet until the larvae hatch after about 42 days. An efficacy of 100% means that none of the ticks has laid any fertile eggs; 0% means that all the eggs are fertile.

[2] = system: Musca domestica; assay: Musca domestica test (MUSCDO); assay type: in vivo
Experimental: Musca domestica-Test (MUSCDO)
as §1
(§2) To produce a suitable preparation of active compound, 10 mg of active compound are mixed with 0.5 ml of dimethyl sulfoxide, and the concentrate is diluted with water to the desired concentration.
Vessels containing a sponge treated with sugar solution and the active compound preparation of the desired concentration are populated with 10 adult houseflies (Musca domestica).
After the desired time, the kill in % is determined. 100% means that all of the flies have been killed; 0% means that none of the flies have been killed.

[3] = system: Lucilia cuprina; assay: Lucilia cuprina test (LUCICU); assay type: in vivo; conditions: application rate 100 ppm
Experimental: Lucilia cuprina-Test (LUCICU)
as §1, §2
About 20 L1 larvae of the Australian sheep blowfly (Lucilia cuprina) are transferred into a test vessel containing minced horsemeat and the active compound preparation of the desired concentration.
After the desired time, the kill in % is determined. 100% means that all the larvae have been killed; 0% means that no larvae have been killed.

[4] = system: Spodoptera frugiperda; assay: Spodoptera frugiperda - spray test (SPODFR); assay type: in vivo; conditions: application rate 100 g/ha, maize leaf disks
How it was run: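 Maize leaf disks sprayed with compound in acetone/DMF with alkylaryl polyglycol ether emulsifier, diluted in water to test concentration, then infested with armyworm caterpillars once dry. Efficacy given as % caterpillars killed (100% all, 0% none) after the chosen period.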

[5] = system: Phaedon cochleariae; assay: Phaedon cochleariae - spray test (PHAECO); assay type: in vivo; conditions: application rate 100 g/ha, Chinese cabbage leaf disks
Experimental: Phaedon cochleariae—Spray Test (PHAECO)
(§3) Solvent: 78.0 parts by weight of acetone • • 1.5 parts by weight of dimethylformamide
(§4) Emulsifier: 0.5 parts by weight of alkylaryl polyglycol ether
(§5) To produce a suitable active compound preparation, 1 part by weight of active compound is mixed with the stated amounts of solvent and emulsifier, and the concentrate is diluted with emulsifier-containing water to the desired concentration.
After the desired period of time, the efficacy in % is determined. 100% means that all the beetle larvae have been killed; 0% means that no beetle larvae have been killed.

[6] = log P by HPLC on reversed-phase column (C18), EEC directive 79/831 Annex V.A8; assay type: physicochemical; conditions: for log p: HPLC reversed-phase C18, 43° C., data refer to the E isomer
Experimental: The log P values reported in the tables and Preparation Examples above were determined in accordance with EEC directive 79/831 Annex V.A8 by HPLC (High Performance Liquid Chromatography) using a reversed-phase column (C18). Temperature 43° C. The calibration is effected with unbranched alkan-2-ones (having 3 to 16 carbon atoms), for which the log P values are known.

[7] = system: Myzus persicae; assay: Myzus persicae - spray test (MYZUPE); assay type: in vivo; conditions: application rate 100 g/ha, Chinese cabbage leaf disks
How it was run: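 Chinese cabbage leaf disks carrying all stages of green peach aphid were sprayed with compound in acetone/DMF with emulsifier, diluted in water. After the chosen period, efficacy was scored as % aphids killed.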

[8] = system: Tetranychus urticae; assay: Tetranychus urticae - spray test, OP-resistant (TETRUR); assay type: in vivo; conditions: application rate 100 g/ha, bean leaf disks
Experimental: Tetranychus urticae—Spray Test, OP-Resistant (TETRUR)
as §3, §4, §5
Disks of bean leaves (Phaseolus vulgaris) infested with all stages of the greenhouse red spider mite (Tetranychus urticae) are sprayed with an active compound preparation of the desired concentration.
After the desired period of time, the efficacy in % is determined. 100% means that all the spider mites have been killed; 0% means that none of the spider mites have been killed.

Row | SMILES | efficacy (no fertile eggs laid) [1] [%] | efficacy (kill of adult houseflies) ([2]; application rate 100 ppm) [%] | efficacy (kill of L1 larvae) [3] [%] | efficacy (caterpillars killed) [4] [%] | efficacy (beetle larvae killed) [5] [%] | log p ([6]; Table A) | efficacy (aphids killed) [7] [%] | efficacy (spider mites killed) [8] [%] | log p ([6]; Table B) | chromatographic logP ([6]; log P) | chromatographic logP ([6]; log p) | efficacy (kill of adult houseflies) ([2]; application rate 20 ppm) [%] | log p ([6]; Table C)
1 | CON=Cc1cc(C)c(NC(=O)c2cc(C(F)F)nn2-c2ncccc2Cl)c(C(=O)NNC(=O)OC)c1 (mixture of isomers) [A-39] | 100 | 80 | 100 | 100 | 100 | 2.26 | 90 | – | – | – | – | – | –
2 | CON=Cc1cc(C)c(NC(=O)c2cc(C(F)F)nn2-c2ncccc2Cl)c(C(=O)NN(C)C(=O)OC)c1 (mixture of isomers) [A-41] | 100 | 80 | 100 | 100 | 100 | 2.46 | 90 | – | – | – | – | – | –
3 | CON=Cc1cc(C)c(NC(=O)c2cc(Br)nn2-c2ncccc2Cl)c(C(=O)NNC(=O)OC)c1 (mixture of isomers) [A-42] | 100 | 80 | 100 | 100 | 100 | 2.38 | 100 | – | – | – | – | – | –
4 | CON=Cc1cc(C)c(NC(=O)c2cc(OC)nn2-c2ncccc2Cl)c(C(=O)NN(C)C(=O)OC)c1 (mixture of isomers) [A-43] | – | – | – | 100 | 100 | 2.19 | 100 | 100 | – | – | – | – | –
5 | CON=Cc1cc(C)c(NC(=O)c2cc(C(F)(F)F)nn2-c2ncccc2Cl)c(C(=O)NN(C)C(=O)OC)c1 (mixture of isomers) [A-46] | – | – | – | 100 | 100 | 2.85 | 90 | 100 | – | – | – | – | –
6 | CON=Cc1cc(C)c(NC(=O)c2cc(Br)nn2-c2ncccc2Cl)c(C(=O)NC2(C)CSC2)c1 (mixture of isomers) [B-01] | – | – | – | 100 | 100 | – | 90 | 100 | 3.22 | – | – | – | –
7 | CON=Cc1cc(C)c(NC(=O)c2cc(C(F)(F)F)nn2-c2ncccc2Cl)c(C(=O)NC2COC2)c1 (mixture of isomers) [B-02] | 100 | – | 100 | 100 | 100 | – | 100 | 90 | 2.78 | – | – | – | –
8 | CO/N=C/c1cc(C)c(NC(=O)c2cc(OCC(F)F)nn2-c2ncccc2Cl)c(C(=O)NN(C)C(=O)OC)c1 [A-01, Methyl 2-{2-({[1-(3-chloropyridin-2-yl)-3-(2,2-difluoroethoxy)-1H-pyrazol-5-yl]carbonyl}amino)-5-[(E)-(methoxyimino)methyl]-3-methylbenzoyl}-1-methylhydrazinecarboxylate] | – | – | – | 100 | 100 | – | 90 | 90 | – | 2.58 | 2.58 | – | –
9 | CO/N=C/c1cc(C)c(NC(=O)c2cc(OC(F)F)nn2-c2ncccc2Cl)c(C(=O)NNC(=O)OC)c1 [A-02, Methyl 2-{2-({[1-(3-chloropyridin-2-yl)-3-(difluoromethoxy)-1H-pyrazol-5-yl]carbonyl}amino)-5-[(E)-(methoxyimino)methyl]-3-methylbenzoyl}hydrazinecarboxylate] | – | – | – | 100 | 100 | – | 90 | 90 | – | 2.28 | 2.38 | – | –
10 | CON=Cc1cc(C)c(NC(=O)c2cc(C(F)(F)F)nn2-c2ncccc2Cl)c(C(=O)NNC(=O)Oc2ccccc2)c1 [A-19] | 95 | – | 100 | 100 | 100 | 3.02 | – | 90 | – | – | – | – | –
11 | CON=Cc1cc(C)c(NC(=O)c2cc(C(F)(F)F)nn2-c2ncccc2Cl)c(C(=O)N(C)NC(=O)Oc2ccccc2)c1 [A-26] | – | – | – | 100 | – | 3.72 | – | 90 | – | – | – | – | –
12 | C#CCOC(=O)NN(C)C(=O)c1cc(C=NOC)cc(C)c1NC(=O)c1cc(C(F)(F)F)nn1-c1ncccc1Cl [A-29] | 95 | – | 100 | 100 | – | 3.16 | 90 | 90 | – | – | – | – | –
13 | CON=Cc1cc(C)c(NC(=O)c2cc(OCC(F)F)nn2-c2ncccc2Cl)c(C(=O)NC(C)C)c1 [C-19] | 100 | – | 100 | 100 | – | – | 90 | – | – | – | – | 80 | 3.07
14 | CON=Cc1cc(C)c(NC(=O)c2cc(OC)nn2-c2ncccc2Cl)c(C(=O)NC(C)C)c1 [C-24] | 100 | 100 | 100 | 100 | 100 | – | 100 | – | – | – | – | – | 2.65
15 | CNC(=O)c1cc(C=NOC)cc(C)c1NC(=O)c1cc(C(F)F)nn1-c1ncccc1Cl [C-28] | 100 | 80 | 100 | 100 | 100 | – | 90 | – | – | – | – | – | 2.48
16 | CON=Cc1cc(C)c(NC(=O)c2cc(C(F)F)nn2-c2ncccc2Cl)c(C(=O)NC(C)C)c1 [C-29] | 100 | – | 100 | 100 | 100 | – | 100 | – | – | – | – | 100 | 2.98
17 | COCC(C)NC(=O)c1cc(C=NOC)cc(C)c1NC(=O)c1cc(OC)nn1-c1ncccc1Cl (centres unmarked) [C-41] | – | – | – | 100 | – | – | 100 | 90 | – | – | – | – | 2.51
18 | CON=Cc1cc(C)c(NC(=O)c2cc(CF)nn2-c2ncccc2Cl)c(C(=O)NC(C)C2CC2)c1 (centres unmarked) [C-43] | – | – | – | 100 | 100 | – | 90 | 90 | – | – | – | – | 2.96
19 | CON=Cc1cc(C)c(NC(=O)c2cc(CF)nn2-c2ncccc2Cl)c(C(=O)NC(C)(C)C)c1 [C-44] | – | – | – | 100 | 100 | – | 100 | 90 | – | – | – | – | 3.00
20 | CNC(=O)c1cc(C=NOC)cc(C)c1NC(=O)c1cc(CF)nn1-c1ncccc1Cl [C-45] | – | – | – | 100 | 100 | – | 100 | 100 | – | – | – | – | 2.14
